Experimental findings from US20230348442A1, “GALECTIN-3 INHIBITING 2-HYDROXYCYCLOALKANE-1-CARBAMOYL DERIVATIVES” (Idorsia Pharmaceuticals Ltd, priority 2020, published 2023) are described below.

Molecules are shown by their SMILES.

In the test the target is human Gal-3 (hGal-3) (Homo sapiens (Human), UniProt P17931). The test is described as follows: competitive binding assay: binding of biotinylated hGal-3 to microplate-adsorbed asialofetuin (ASF), spectrophotometric. The note with it: Activity on hGal-3; mean values of several measurements. The gist of the method: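 Compounds in DMSO dilution series competed with 300-1000 ng/mL biotinylated hGal-3 for asialofetuin adsorbed on the plate (3 h, 4° C). Streptavidin-peroxidase at 80 ng/mL (1 h, 4° C) with ABTS gave a spectrophotometric read-out, and IC50 was reported as the mean of repeat runs.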
human Gal-3 (hGal-3), sequence (P17931 whole entry): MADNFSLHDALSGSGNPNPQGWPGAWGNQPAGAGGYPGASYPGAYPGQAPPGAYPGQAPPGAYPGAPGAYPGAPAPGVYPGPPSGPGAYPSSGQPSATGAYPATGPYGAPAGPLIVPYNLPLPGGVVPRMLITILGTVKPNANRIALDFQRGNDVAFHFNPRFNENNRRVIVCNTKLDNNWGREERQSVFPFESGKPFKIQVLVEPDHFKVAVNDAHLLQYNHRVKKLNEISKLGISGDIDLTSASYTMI
Usually IC50 stands for the midpoint of a concentration-inhibition curve. Low values mean higher potency, high ones lower potency. `CO[C@@H]1[C@@H](n2cc(-c3cc(F)cc(Cl)c3)nn2)[C@@H](O)[C@@H](CO)O[C@H]1C(=O)N(c1cc(Br)cc(C#N)c1)[C@H]1CC[C@@H]1O` [Example 2.9.5, (2R,3R,4S,5R,6R)-N-(3-bromo-5-cyanophenyl)-4-(4-(3-chloro-5-fluorophenyl)-1H-1,2,3-triazol-1-yl)-5-hydroxy-N-((1S,2S)-2-hydroxycyclobutyl)-6-(hydroxymethyl)-3-methoxytetrahydro-2H-pyran-2-carboxamide]: the IC50 was 123 nM. Turning to `CO[C@@H]1[C@@H](n2cc(-c3cc(F)c(C)c(F)c3)nn2)[C@@H](O)[C@@H](CO)O[C@H]1C(=O)N(c1cc(Cl)cc(C#N)c1)[C@@H]1CCC[C@H]1O` [Example 1.4.4R, (2R,3R,4S,5R,6R)-N-(3-chloro-5-cyanophenyl)-4-(4-(3,5-difluoro-4-methylphenyl)-1H-1,2,3-triazol-1-yl)-5-hydroxy-N-((1R,2R)-2-hydroxycyclopentyl)-6-(hydroxymethyl)-3-methoxytetrahydro-2H-pyran-2-carboxamide], the IC50 is 74.8 nM. On to `CO[C@@H]1[C@@H](n2cc(-c3cc(F)c(F)c(Cl)c3)nn2)[C@@H](O)[C@@H](CO)O[C@H]1C(=O)N(c1cc(Cl)cc(C#N)c1)[C@@H]1CC[C@H]1O` [Example 2.7.4R, (2R,3R,4S,5R,6R)-4-(4-(3-chloro-4,5-difluorophenyl)-1H-1,2,3-triazol-1-yl)-N-(3-chloro-5-cyanophenyl)-5-hydroxy-N-((1R,2R)-2-hydroxycyclobutyl)-6-(hydroxymethyl)-3-methoxytetrahydro-2H-pyran-2-carboxamide], for which the IC50 is 253 nM. As for `Cc1c(F)cc(-c2cn([C@H]3[C@@H](O)[C@@H](CO)O[C@@H](C(=O)N(c4cc(Cl)cc(C#N)c4)[C@H]4CCC[C@@H]4O)[C@@H]3O)nn2)cc1F` [Example 1H.4.4, (2R,3R,4S,5R,6R)-N-(3-chloro-5-cyanophenyl)-4-(4-(3,5-difluoro-4-methylphenyl)-1H-1,2,3-triazol-1-yl)-3,5-dihydroxy-N-((1S,2S)-2-hydroxycyclopentyl)-6-(hydroxymethyl)tetrahydro-2H-pyran-2-carboxamide], the IC50 came to 19.3 nM.

`CO[C@@H]1[C@@H](n2cc(-c3cc(F)c(F)c(F)c3)nn2)[C@@H](O)[C@@H](CO)O[C@H]1C(=O)N(c1cc(C)cc(Cl)c1)[C@H]1CC[C@@H]1O` [Example 2.1.3, (2R,3R,4S,5R,6R)-N-(3-chloro-5-methylphenyl)-5-hydroxy-N-((1S,2S)-2-hydroxycyclobutyl)-6-(hydroxymethyl)-3-methoxy-4-(4-(3,4,5-trifluorophenyl)-1H-1,2,3-triazol-1-yl)tetrahydro-2H-pyran-2-carboxamide]: the IC50 came to 118 nM.

In the case of `CO[C@@H]1[C@@H](n2cc(-c3cc(F)c(F)c(F)c3)nn2)[C@@H](O)[C@@H](CO)O[C@H]1C(=O)N(c1cccc(I)c1)[C@H]1CCC[C@@H]1O` [Example 1.1.6, (2R,3R,4S,5R,6R)-5-hydroxy-N-((1S,2S)-2-hydroxycyclopentyl)-6-(hydroxymethyl)-N-(3-iodophenyl)-3-methoxy-4-(4-(3,4,5-trifluorophenyl)-1H-1,2,3-triazol-1-yl)tetrahydro-2H-pyran-2-carboxamide], the half-inhibitory concentration (IC50) came to 42.4 nM. For `CO[C@@H]1[C@@H](n2cc(-c3ccc(C)c(F)c3F)nn2)[C@@H](O)[C@@H](CO)O[C@H]1C(=O)N(c1cc(Cl)cc(Cl)c1)[C@H]1CC[C@@H]1O` [Example 2.11.2, (2R,3R,4S,5R,6R)-N-(3,5-dichlorophenyl)-4-(4-(2,3-difluoro-4-methylphenyl)-1H-1,2,3-triazol-1-yl)-5-hydroxy-N-((1S,2S)-2-hydroxycyclobutyl)-6-(hydroxymethyl)-3-methoxytetrahydro-2H-pyran-2-carboxamide], the half-maximal inhibitory concentration (IC50) was found to be 42.7 nM.
